What was measured:
Type in all cases: biochemical
Details in all cases: 10 μM, ATP near Km
[1] = target: T1, SRC (Homo sapiens, UniProt P12931); assay: KinaseProfiler SRC
T1 construct: purchased Millipore, Inc. (KinaseProfiler service)
Text: (§1) The compound was run in duplicate at a concentration of ATP near the Km for each individual kinase according to Millipore's specifications.

[2] = target: T2, Abl-P (Homo sapiens, UniProt P00519); assay: KinaseProfiler Abl-P
T2 construct: purchased Millipore (KinaseProfiler service)
Text: as §1

[3] = system: CK1_y; assay: KinaseProfiler CK1_y
[4] = target: T3, FAK2 (Homo sapiens, UniProt Q14289); assay: KinaseProfiler FAK2
T3 construct: purchased Millipore, Inc. (KinaseProfiler service)
Text: as §1

[5] = target: T4, DCAMKL2 (Homo sapiens, UniProt Q8N568); assay: KinaseProfiler DCAMKL2
T4 construct: purchased Millipore, Inc. (KinaseProfiler service)
Text: as §1

[6] = target: T5, DYRK2 (Homo sapiens, UniProt Q92630); assay: KinaseProfiler DYRK2
T5 construct: purchased Millipore, Inc. (KinaseProfiler service)
Text: as §1

[7] = target: T6, CDK5/p25 (Homo sapiens, UniProt Q00535); assay: KinaseProfiler CDK5/p25
T6 construct: purchased Millipore, Inc. (KinaseProfiler service)
Text: as §1

[8] = target: T7, CHK2 (Homo sapiens, UniProt O96017); assay: KinaseProfiler CHK2
T7 construct: purchased Millipore, Inc. (KinaseProfiler service)
Text: as §1

[9] = target: T8, PKCtheta (Homo sapiens, UniProt Q04759); assay: KinaseProfiler PKCtheta
T8 construct: purchased Millipore, Inc. (KinaseProfiler service)
Text: as §1

[10] = target: T9, EphB3 (Homo sapiens, UniProt P54753); assay: KinaseProfiler EphB3
T9 construct: purchased Millipore, Inc. (KinaseProfiler service)
Text: as §1

[11] = target: T10, Ret (Homo sapiens, UniProt P07949); assay: KinaseProfiler Ret
T10 construct: purchased Millipore, Inc. (KinaseProfiler service)
Text: as §1

[12] = target: T11, Rsk1 (Homo sapiens, UniProt Q15418); assay: KinaseProfiler Rsk1
T11 construct: purchased Millipore, Inc. (KinaseProfiler service)
Text: as §1

[13] = target: T12, PASK (Homo sapiens, UniProt Q96RG2); assay: KinaseProfiler PASK
T12 construct: purchased Millipore, Inc. (KinaseProfiler service)
Text: as §1

[14] = target: T13, KIT (Homo sapiens, UniProt P10721); assay: KinaseProfiler KIT
T13 construct: purchased Millipore, Inc. (KinaseProfiler service)
Text: as §1

[15] = target: T14, CAMK2g (Homo sapiens, UniProt Q13555); assay: KinaseProfiler CAMK2g
T14 construct: purchased Millipore (KinaseProfiler service)
Text: as §1

[16] = target: T15, Ros (Homo sapiens, UniProt P08922); assay: KinaseProfiler Ros
T15 construct: purchased Millipore, Inc. (KinaseProfiler service)
Text: as §1

[17] = target: T16, SGK1 (Homo sapiens, UniProt O00141); assay: KinaseProfiler SGK1
T16 construct: purchased Millipore, Inc. (KinaseProfiler service)
Text: as §1

[18] = target: T17, Hck (Homo sapiens, UniProt P08631); assay: KinaseProfiler Hck
T17 construct: purchased Millipore, Inc. (KinaseProfiler service)
Text: as §1

[19] = target: T18, TLK2 (Homo sapiens, UniProt Q86UE8); assay: KinaseProfiler TLK2
T18 construct: purchased Millipore, Inc. (KinaseProfiler service)
Text: as §1

[20] = target: T19, MAP3K5 (Homo sapiens, UniProt Q99683); assay: KinaseProfiler MAP3K5
T19 construct: purchased Millipore, Inc. (KinaseProfiler service)
Text: as §1

[21] = target: T20, GRK6 (Homo sapiens, UniProt P43250); assay: KinaseProfiler GRK6
T20 construct: purchased Millipore, Inc. (KinaseProfiler service)
Text: as §1

[22] = target: T21, Syk (Homo sapiens, UniProt P43405); assay: KinaseProfiler Syk
T21 construct: purchased Millipore, Inc. (KinaseProfiler service)
Text: as §1

[23] = target: T22, CK1gamma3 (Homo sapiens, UniProt Q9Y6M4); assay: KinaseProfiler CK1gamma3
T22 construct: purchased Millipore, Inc. (KinaseProfiler service)
Text: as §1

[24] = target: T23, IR Activated (Homo sapiens, UniProt P06213); assay: KinaseProfiler IR Activated
T23 construct: purchased Millipore, Inc. (KinaseProfiler service)
Text: as §1

[25] = target: T24, Txk (Homo sapiens, UniProt P42681); assay: KinaseProfiler Txk
T24 construct: purchased Millipore, Inc. (KinaseProfiler service)
Text: as §1

[26] = target: T25, MKK4_m (Mus musculus, UniProt P47809); assay: KinaseProfiler MKK4_m
T25 construct: purchased Millipore, Inc. (KinaseProfiler service)
Text: as §1

[27] = target: T26, PKCbetaI (Homo sapiens, UniProt P05771); assay: KinaseProfiler PKCbetaI
T26 construct: purchased Millipore, Inc. (KinaseProfiler service)
Text: as §1

[28] = target: T27, mTOR/FKBP12 (Homo sapiens, UniProt P42345); assay: KinaseProfiler mTOR/FKBP12
T27 construct: purchased Millipore, Inc. (KinaseProfiler service)
Text: as §1

[29] = target: T28, Lyn (Homo sapiens, UniProt P07948); assay: KinaseProfiler Lyn
T28 construct: purchased Millipore, Inc. (KinaseProfiler service)
Text: as §1

[30] = target: T29, JAK3 (Homo sapiens, UniProt P52333); assay: KinaseProfiler JAK3
T29 construct: purchased Millipore, Inc. (KinaseProfiler service)
Text: as §1

[31] = target: T30, EphB2 (Homo sapiens, UniProt P29323); assay: KinaseProfiler EphB2
T30 construct: purchased Millipore, Inc. (KinaseProfiler service)
Text: as §1

[32] = target: T31, Ron (Homo sapiens, UniProt Q04912); assay: KinaseProfiler Ron
T31 construct: purchased Millipore, Inc. (KinaseProfiler service)
Text: as §1

[33] = target: T32, PrKX (Homo sapiens, UniProt P51817); assay: KinaseProfiler PrKX
T32 construct: purchased Millipore, Inc. (KinaseProfiler service)
Text: as §1

[34] = target: T33, PKCiota (Homo sapiens, UniProt P41743); assay: KinaseProfiler PKCiota
T33 construct: purchased Millipore, Inc. (KinaseProfiler service)
Text: as §1

[35] = target: T34, PDK1 (Homo sapiens, UniProt O15530); assay: KinaseProfiler PDK1
T34 construct: purchased Millipore, Inc. (KinaseProfiler service)
Text: as §1

[36] = target: T35, Plk1 (Homo sapiens, UniProt P53350); assay: KinaseProfiler Plk1
T35 construct: purchased Millipore, Inc. (KinaseProfiler service)
Text: as §1

[37] = target: T36, CDK1/cyclinB (Homo sapiens, UniProt P06493); assay: KinaseProfiler CDK1/cyclinB
T36 construct: purchased Millipore (KinaseProfiler service)
Text: as §1

[38] = target: T37, PKCalpha (Homo sapiens, UniProt P17252); assay: KinaseProfiler PKCalpha
T37 construct: purchased Millipore, Inc. (KinaseProfiler service)
Text: as §1

[39] = target: T38, TAO2 (Homo sapiens, UniProt Q9UL54); assay: KinaseProfiler TAO2
T38 construct: purchased Millipore, Inc. (KinaseProfiler service)
Text: as §1

[40] = target: T39, EphA1 (Homo sapiens, UniProt P21709); assay: KinaseProfiler EphA1
T39 construct: purchased Millipore, Inc. (KinaseProfiler service)
Text: as §1

[41] = target: T40, DAPK3 (Homo sapiens, UniProt O43293); assay: KinaseProfiler DAPK3
T40 construct: purchased Millipore, Inc. (KinaseProfiler service)
Text: as §1

[42] = target: T41, p38beta (Homo sapiens, UniProt Q15759); assay: KinaseProfiler p38beta
T41 construct: purchased Millipore, Inc. (KinaseProfiler service)
Text: as §1

[43] = target: T42, MAP4K2 (Homo sapiens, UniProt Q12851); assay: KinaseProfiler MAP4K2
T42 construct: purchased Millipore, Inc. (KinaseProfiler service)
Text: as §1

T20 sequence (P43250 whole entry): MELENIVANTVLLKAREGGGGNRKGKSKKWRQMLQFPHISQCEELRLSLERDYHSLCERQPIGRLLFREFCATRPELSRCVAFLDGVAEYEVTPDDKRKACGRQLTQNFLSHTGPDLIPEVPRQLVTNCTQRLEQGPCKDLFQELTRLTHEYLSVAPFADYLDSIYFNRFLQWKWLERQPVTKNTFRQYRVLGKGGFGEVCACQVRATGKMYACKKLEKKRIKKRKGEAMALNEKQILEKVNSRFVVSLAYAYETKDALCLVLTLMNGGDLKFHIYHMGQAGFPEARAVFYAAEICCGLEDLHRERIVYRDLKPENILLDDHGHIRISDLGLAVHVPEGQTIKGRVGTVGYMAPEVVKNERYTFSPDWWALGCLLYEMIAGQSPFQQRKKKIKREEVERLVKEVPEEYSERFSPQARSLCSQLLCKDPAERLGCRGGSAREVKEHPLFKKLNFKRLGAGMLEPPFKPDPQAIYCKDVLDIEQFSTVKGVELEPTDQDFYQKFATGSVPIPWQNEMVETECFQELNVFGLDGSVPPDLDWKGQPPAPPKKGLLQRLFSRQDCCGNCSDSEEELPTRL
T8 sequence (Q04759 whole entry): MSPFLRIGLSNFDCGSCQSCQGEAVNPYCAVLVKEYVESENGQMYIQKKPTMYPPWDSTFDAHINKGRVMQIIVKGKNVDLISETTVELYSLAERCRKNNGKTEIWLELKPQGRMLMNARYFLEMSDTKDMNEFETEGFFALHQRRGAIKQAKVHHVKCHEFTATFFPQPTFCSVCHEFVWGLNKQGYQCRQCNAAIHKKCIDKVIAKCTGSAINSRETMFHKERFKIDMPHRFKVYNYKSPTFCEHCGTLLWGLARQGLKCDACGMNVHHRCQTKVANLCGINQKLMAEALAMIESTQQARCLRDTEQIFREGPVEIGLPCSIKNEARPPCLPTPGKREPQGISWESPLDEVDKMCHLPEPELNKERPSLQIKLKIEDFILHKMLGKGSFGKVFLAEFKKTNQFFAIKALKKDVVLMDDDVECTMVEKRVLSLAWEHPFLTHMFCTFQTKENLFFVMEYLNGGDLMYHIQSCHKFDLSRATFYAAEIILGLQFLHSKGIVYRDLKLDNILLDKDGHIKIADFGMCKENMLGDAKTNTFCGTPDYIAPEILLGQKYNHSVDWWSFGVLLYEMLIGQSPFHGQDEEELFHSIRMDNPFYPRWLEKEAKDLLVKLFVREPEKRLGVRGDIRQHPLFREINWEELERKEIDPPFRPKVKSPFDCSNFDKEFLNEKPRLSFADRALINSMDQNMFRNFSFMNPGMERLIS
T41 sequence (Q15759 whole entry): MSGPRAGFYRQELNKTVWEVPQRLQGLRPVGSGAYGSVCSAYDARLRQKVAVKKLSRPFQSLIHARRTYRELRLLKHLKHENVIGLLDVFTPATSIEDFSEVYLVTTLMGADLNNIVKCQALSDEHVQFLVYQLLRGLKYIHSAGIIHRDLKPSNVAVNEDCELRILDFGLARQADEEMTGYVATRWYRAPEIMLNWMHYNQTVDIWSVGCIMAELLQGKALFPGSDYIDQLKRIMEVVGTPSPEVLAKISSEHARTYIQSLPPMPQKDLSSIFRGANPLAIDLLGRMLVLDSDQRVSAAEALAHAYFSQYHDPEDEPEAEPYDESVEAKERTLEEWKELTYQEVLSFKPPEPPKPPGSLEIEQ
T30 sequence (P29323 19-1055): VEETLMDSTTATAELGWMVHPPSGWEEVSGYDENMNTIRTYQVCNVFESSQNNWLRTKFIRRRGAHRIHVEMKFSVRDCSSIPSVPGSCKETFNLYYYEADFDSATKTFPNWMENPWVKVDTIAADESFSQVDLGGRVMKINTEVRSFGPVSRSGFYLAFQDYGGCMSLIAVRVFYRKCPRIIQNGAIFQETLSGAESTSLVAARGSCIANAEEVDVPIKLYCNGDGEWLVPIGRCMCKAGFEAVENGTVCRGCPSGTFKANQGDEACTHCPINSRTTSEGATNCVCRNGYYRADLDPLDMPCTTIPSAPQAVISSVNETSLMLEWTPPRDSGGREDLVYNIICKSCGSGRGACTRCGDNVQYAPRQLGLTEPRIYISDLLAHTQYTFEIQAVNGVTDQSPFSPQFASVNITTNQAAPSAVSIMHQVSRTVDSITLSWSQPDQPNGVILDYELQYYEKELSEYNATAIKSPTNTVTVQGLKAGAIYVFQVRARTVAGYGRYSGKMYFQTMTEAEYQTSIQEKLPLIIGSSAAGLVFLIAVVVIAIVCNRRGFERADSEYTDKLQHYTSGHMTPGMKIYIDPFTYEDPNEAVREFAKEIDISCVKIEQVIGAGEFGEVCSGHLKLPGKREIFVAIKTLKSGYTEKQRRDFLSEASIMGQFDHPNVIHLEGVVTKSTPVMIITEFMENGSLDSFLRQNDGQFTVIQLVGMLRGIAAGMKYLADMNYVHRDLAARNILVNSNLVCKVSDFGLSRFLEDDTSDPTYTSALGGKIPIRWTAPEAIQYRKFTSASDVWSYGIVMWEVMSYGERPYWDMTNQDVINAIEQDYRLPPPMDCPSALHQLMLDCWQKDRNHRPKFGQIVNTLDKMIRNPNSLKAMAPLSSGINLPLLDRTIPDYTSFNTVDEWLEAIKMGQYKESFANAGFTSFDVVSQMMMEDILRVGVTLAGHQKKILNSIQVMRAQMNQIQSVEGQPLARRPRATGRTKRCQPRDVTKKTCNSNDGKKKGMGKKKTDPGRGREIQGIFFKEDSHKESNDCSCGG
T28 sequence (P07948 whole entry): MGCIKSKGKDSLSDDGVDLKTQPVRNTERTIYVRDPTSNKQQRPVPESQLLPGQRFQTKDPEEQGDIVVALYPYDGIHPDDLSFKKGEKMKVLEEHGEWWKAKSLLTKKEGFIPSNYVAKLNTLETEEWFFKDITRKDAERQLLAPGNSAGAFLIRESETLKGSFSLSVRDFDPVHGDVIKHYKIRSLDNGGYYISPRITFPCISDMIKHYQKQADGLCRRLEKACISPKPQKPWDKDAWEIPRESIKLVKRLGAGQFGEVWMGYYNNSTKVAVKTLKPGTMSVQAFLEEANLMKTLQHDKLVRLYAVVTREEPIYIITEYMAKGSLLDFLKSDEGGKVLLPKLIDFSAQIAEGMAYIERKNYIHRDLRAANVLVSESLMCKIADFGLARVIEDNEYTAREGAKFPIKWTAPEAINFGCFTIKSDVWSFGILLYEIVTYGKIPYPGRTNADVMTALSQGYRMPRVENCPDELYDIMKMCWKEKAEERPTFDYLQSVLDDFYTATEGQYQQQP
T40 sequence (O43293 whole entry): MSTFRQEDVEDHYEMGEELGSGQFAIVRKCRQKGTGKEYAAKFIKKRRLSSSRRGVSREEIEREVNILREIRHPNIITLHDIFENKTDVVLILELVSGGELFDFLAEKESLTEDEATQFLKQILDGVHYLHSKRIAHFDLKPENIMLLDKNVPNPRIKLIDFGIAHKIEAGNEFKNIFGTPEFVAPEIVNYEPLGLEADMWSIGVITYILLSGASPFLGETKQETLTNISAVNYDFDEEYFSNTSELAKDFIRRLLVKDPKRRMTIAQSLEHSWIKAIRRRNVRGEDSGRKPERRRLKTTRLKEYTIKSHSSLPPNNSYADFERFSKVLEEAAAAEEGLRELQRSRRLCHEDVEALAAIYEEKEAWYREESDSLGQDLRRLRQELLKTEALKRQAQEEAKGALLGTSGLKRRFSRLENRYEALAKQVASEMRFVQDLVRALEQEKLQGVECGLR
T2 sequence (P00519 whole entry): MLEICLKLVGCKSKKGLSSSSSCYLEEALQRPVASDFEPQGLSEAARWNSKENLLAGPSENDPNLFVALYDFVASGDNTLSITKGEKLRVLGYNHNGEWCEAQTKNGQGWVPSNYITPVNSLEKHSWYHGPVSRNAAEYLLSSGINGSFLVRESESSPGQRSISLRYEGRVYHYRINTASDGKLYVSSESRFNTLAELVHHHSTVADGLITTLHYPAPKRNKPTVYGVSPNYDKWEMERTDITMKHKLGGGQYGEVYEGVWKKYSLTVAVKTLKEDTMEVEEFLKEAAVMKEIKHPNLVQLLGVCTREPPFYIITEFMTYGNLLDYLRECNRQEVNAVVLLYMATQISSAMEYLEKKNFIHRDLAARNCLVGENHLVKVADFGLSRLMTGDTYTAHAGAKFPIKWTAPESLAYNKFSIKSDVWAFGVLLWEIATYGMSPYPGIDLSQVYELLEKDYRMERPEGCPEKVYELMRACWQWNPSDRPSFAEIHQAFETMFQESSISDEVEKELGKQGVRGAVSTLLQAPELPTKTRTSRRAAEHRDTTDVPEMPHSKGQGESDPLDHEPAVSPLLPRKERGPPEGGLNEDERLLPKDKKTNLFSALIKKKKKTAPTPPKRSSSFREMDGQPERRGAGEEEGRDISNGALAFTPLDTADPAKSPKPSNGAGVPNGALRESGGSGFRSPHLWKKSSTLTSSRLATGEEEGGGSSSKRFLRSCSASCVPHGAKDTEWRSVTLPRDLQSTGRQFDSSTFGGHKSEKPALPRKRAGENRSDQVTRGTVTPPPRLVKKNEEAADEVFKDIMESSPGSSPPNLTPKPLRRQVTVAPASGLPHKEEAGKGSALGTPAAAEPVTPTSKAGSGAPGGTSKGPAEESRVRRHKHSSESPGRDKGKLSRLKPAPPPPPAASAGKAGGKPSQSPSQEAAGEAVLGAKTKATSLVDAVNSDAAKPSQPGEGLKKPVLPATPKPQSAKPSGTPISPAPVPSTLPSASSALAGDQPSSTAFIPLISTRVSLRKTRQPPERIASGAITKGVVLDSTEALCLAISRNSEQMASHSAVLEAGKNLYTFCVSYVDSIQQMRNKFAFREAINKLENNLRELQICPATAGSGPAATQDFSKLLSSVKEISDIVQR

With `Cc1c(-c2cnn(C)c2)nn(-c2ccccc2)c1NC(=O)Nc1cc(C(F)(F)F)nn1-c1ccccc1` [Example 3, 1-(1′,4-dimethyl-1-phenyl-1H,1′H-[3,4′-bipyrazol]-5-yl)-3-(1-phenyl-3-(trifluoromethyl)-1H-pyrazol-5-yl)urea] the “Avg POC” value [1] was 102.5 POC, the “Avg POC” value [2] was 154.5 POC and the “Avg POC” value [3] was 98 POC. The “Avg POC” value [4] was 103.5 POC, the “Avg POC” value [5] was 222.5 POC and the “Avg POC” value [6] was 92.5 POC. The “Avg POC” value [7] was 108.5 POC, the “Avg POC” value [8] was 126.5 POC and the “Avg POC” value [9] was 113.5 POC. The “Avg POC” value [10] was 63 POC, the “Avg POC” value [11] was 89.5 POC and the “Avg POC” value [12] was 123 POC. The “Avg POC” value [13] was 147 POC, the “Avg POC” value [14] was 86.5 POC and the “Avg POC” value [15] was 112 POC. The “Avg POC” value [16] was 97 POC, the “Avg POC” value [17] was 276.5 POC and the “Avg POC” value [18] was 110.5 POC. For the same compound, the “Avg POC” value [19] was 108.5 POC, the “Avg POC” value [20] was 102 POC and the “Avg POC” value [21] was 105 POC. For the same compound, the “Avg POC” value [22] was 101 POC, the “Avg POC” value [23] was 125 POC and the “Avg POC” value [24] was 99.5 POC. For the same compound, the “Avg POC” value [25] was 139.5 POC, the “Avg POC” value [26] was 132.5 POC and the “Avg POC” value [27] was 87 POC. For the same compound, the “Avg POC” value [28] was 92.5 POC, the “Avg POC” value [29] was 98 POC and the “Avg POC” value [30] was 117.5 POC. The “Avg POC” value [31] was 118.5 POC, the “Avg POC” value [32] was 90.5 POC and the “Avg POC” value [33] was 188 POC. For the same compound, the “Avg POC” value [34] was 69.5 POC, the “Avg POC” value [35] was 123 POC and the “Avg POC” value [36] was 95 POC. The “Avg POC” value [37] was 102.5 POC, the “Avg POC” value [38] was 104 POC and the “Avg POC” value [39] was 108 POC. For the same compound, the “Avg POC” value [40] was 93.5 POC, the “Avg POC” value [41] was 118.5 POC and the “Avg POC” value [42] was 102 POC. For the same compound, the “Avg POC” value [43] was 113 POC.

From patent US9809578B2, “Pyrazolyl urea, thiourea, guanidine and cyanoguanidine compounds as trkA kinase inhibitors” (Array BioPharma Inc., priority 2012, dated 2017)
